Experimental data as given in patent US11959083B2, “Immunosuppression-reverting oligonucleotides inhibiting the expression of CD39” (Secarna Pharmaceuticals GmbH & Co. KG, priority 2016, dated 2024).
l = locked nucleic acid (LNA); d = 2'-deoxy (DNA)

Experiments:
Type in all cases: cell-based, human
HDLM-2 cells = assay: Viability of HDLM-2 cells (7-AAD, flow cytometry); conditions: three, four and six days, different concentrations
Method: (§1) HDLM-2 cells were therefore treated with different concentrations of the respective antisense oligonucleotide for three, four and six days, respectively. Protein expression was analyzed by flow cytometry using the CD39 antibody (clone A1) and 7-AAD to investigate viability. […] Table 13summarizes protein knockdown efficiency of the selected human CD39 antisense oligonucleotides A04040H (SEQ ID No. 3) and A04045H (SEQ ID No. 4) in HDLM-2 cells at different time points: […]

hCD39 mRNA [1] = assay: IC50 determination / concentration-dependent hCD39 mRNA knockdown in HDLM-2 cells; conditions: for mRNA inhibition: HDLM-2, 3 days, Table 8
Procedure, shortened: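 Antisense oligonucleotides applied to HDLM-2 cells for 3 days, titrated 10 μM down to 4.5 nM. hCD39 mRNA normalized to HPRT1 and expressed as residual level relative to untreated cells (100); mean of triplicates, IC50 from concentration-response.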

hCD39 protein = assay: Concentration- and time-dependent hCD39 protein knockdown in HDLM-2 cells (flow cytometry); conditions: for Inhibition [%] (Protein/mRNA): HDLM-2, CD39 protein
Method: FIG. 8 depicts concentration- and time-dependent CD39 protein knockdown by A04040H (SEQ ID No. 3) and A04045H (SEQ ID No. 4). Analysis of CD39 protein expression by flow cytometry in HDML-2 cells is given after treatment with the indicated antisense oligonucleotides for 3, 4 and 6 days. As treatment control, cells were treated with neg1 for 3, 4 and 6 days at the indicated concentrations. Relative expression compared to untreated control cells (=1) is depicted.
as §1

hCD39 mRNA [2] = assay: hCD39 mRNA knockdown efficacy screen in HDLM-2 cells (single dose, gymnotic delivery, QuantiGene Singleplex); set-up: key to Relative hCD39 mRNA expression (compared to non-treated cells): *: values are below detection limit; conditions: 10 μM, 3 days
Procedure, shortened: (§2)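 Antisense oligonucleotides given once at 10 μM without transfection reagent (gymnotic) to HDLM-2 or A-172 cells for 3 days. hCD39 mRNA measured by QuantiGene Singleplex, normalized to HPRT1 and expressed relative to untreated cells; triplicate means.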

hCD39 mRNA [3] = assay: hCD39 mRNA knockdown efficacy screen in A-172 cells (single dose, gymnotic delivery, QuantiGene Singleplex); conditions: 10 μM, 3 days, normalized to HPRT1
Procedure, shortened: as §2

Substance: +C*+A*+C*T*T*A*C*G*T*T*C*A*C*T*+A*+C*+C (antisense CACTTACGTTCACTACC; sugars from the 5' end l3 d11 l3, all phosphorothioate, methylation of C not given here) [A04045H]
- viability of HDLM-2 cells (HDLM-2 cells): did not affect viability
- mRNA inhibition (hCD39 mRNA [1]; 0.0045 μM): 30.70%
- mRNA inhibition (hCD39 mRNA [1]; 0.013 μM): 33.03%
- mRNA inhibition (hCD39 mRNA [1]; 0.04 μM): 54.20%
- mRNA inhibition (hCD39 mRNA [1]; 0.12 μM): 73.62%
- mRNA inhibition (hCD39 mRNA [1]; 0.4 μM): 87.63%
- mRNA inhibition (hCD39 mRNA [1]; 1.1 μM): 95.07%
- mRNA inhibition (hCD39 mRNA [1]; 3.3 μM): 97.44%
- mRNA inhibition (hCD39 mRNA [1]; 10 μM): 99.19%
- maximal target inhibition (hCD39 mRNA) (hCD39 mRNA [1]; HDLM-2 cells, compared to untreated cells, first IC50 determination): 99.2%
- IC50 (hCD39 mRNA [1]; HDLM-2 cells, hCD39 mRNA, 3 days, first screening round (Table 8)): 66.8 nM
- Inhibition [%] (Protein/mRNA) (hCD39 protein; Day 3, 0.1 μM): 38.81%
- Inhibition [%] (Protein/mRNA) (hCD39 protein; Day 3, 0.5 μM): 50.37%
- Inhibition [%] (Protein/mRNA) (hCD39 protein; Day 3, 1 μM): 51.53%
- Inhibition [%] (Protein/mRNA) (hCD39 protein; Day 3, 10 μM): 54.88%
- Inhibition [%] (Protein/mRNA) (hCD39 protein; Day 4, 0.1 μM): 61.88%
- Inhibition [%] (Protein/mRNA) (hCD39 protein; Day 4, 0.5 μM): 73.20%
- Inhibition [%] (Protein/mRNA) (hCD39 protein; Day 4, 1 μM): 75.55%
- Inhibition [%] (Protein/mRNA) (hCD39 protein; Day 4, 10 μM): 78.72%
- Inhibition [%] (Protein/mRNA) (hCD39 protein; Day 6, 0.1 μM): 80.24%
- Inhibition [%] (Protein/mRNA) (hCD39 protein; Day 6, 0.5 μM): 89.53%
- Inhibition [%] (Protein/mRNA) (hCD39 protein; Day 6, 1 μM): 90.46%
- Inhibition [%] (Protein/mRNA) (hCD39 protein; Day 6, 10 μM): 94.06%
- inhibition of hCD39 protein (hCD39 protein; HDLM-2 cells, three, four and six days, different concentrations): potent inhibition of hCD39 protein after all indicated time points
- Mean hCD39 mRNA expression normalized to HPRT1 relative to untreated control = 1 (hCD39 mRNA [2]; first screening round): 0.09
- Relative hCD39 mRNA expression (compared to non-treated cells) (hCD39 mRNA [2]; second screening round, normalized to HPRT1): *
- Mean hCD39 mRNA expression (relative to untreated cells set as 1) (hCD39 mRNA [3]; first screening round): 0.16
- Relative hCD39 mRNA expression (compared to non-treated cells) (hCD39 mRNA [3]; second screening round): 0.08
